From ChEMBL document CHEMBL1629662, “Antimicrobial activity of prulifloxacin tested against a worldwide collection of gastroenteritis-producing pathogens, including those causing traveler's diarrhea” (2009)
Values after ≈ are worked out from the molar mass of the structure shown.

Columns and labels:
Vibrio parahaemolyticus [1] = assay: Antibacterial activity against Vibrio parahaemolyticus assessed as percent resistant isolates by broth microdilution method; assay type: functional
Vibrio alginolyticus [2] = assay: Antibacterial activity against Vibrio alginolyticus assessed as percent susceptible isolates by broth microdilution method; assay type: functional
Shigella boydii [3] = assay: Antibacterial activity against Shigella boydii by broth microdilution method; assay type: functional
Vibrio vulnificus [4] = assay: Antibacterial activity against Vibrio vulnificus assessed as percent resistant isolates by broth microdilution method; assay type: functional
Shigella boydii [5] = assay: Antibacterial activity against Shigella boydii assessed as percent susceptible isolates by broth microdilution method; assay type: functional; settings: pooled result: one value given for 3 cell lines, strains, targets or settings
Aeromonas sobria [6] = assay: Antibacterial activity against Aeromonas sobria by broth microdilution method; assay type: functional
Salmonella typhi = assay: Antibacterial activity against Salmonella enterica serovar Typhi by broth microdilution method; assay type: functional, Salmonella enterica subsp. enterica serovar Typhi
Aeromonas veronii [7] = assay: Antibacterial activity against Aeromonas veronii assessed as percent susceptible isolates by broth microdilution method; assay type: functional
Salmonella enteritidis [8] = assay: Antibacterial activity against Salmonella enterica serovar Enteritidis assessed as percent susceptible isolates by broth microdilution method; assay type: functional, Salmonella enterica subsp. enterica serovar Enteritidis; settings: pooled result: one value given for 5 cell lines, strains, targets or settings
[9] = Antibacterial activity against Salmonella enterica serovar Virchow by broth microdilution method; assay type: functional, Salmonella enterica subsp. enterica serovar Virchow
Aeromonas hydrophila [10] = assay: Antibacterial activity against Aeromonas hydrophila assessed as percent susceptible isolates by broth microdilution method; assay type: functional
Escherichia coli [11] = assay: Antibacterial activity against Escherichia coli by broth microdilution method; assay type: functional
Vibrio parahaemolyticus [12] = assay: Antibacterial activity against Vibrio parahaemolyticus by broth microdilution method; assay type: functional
Campylobacter jejuni = assay: Antibacterial activity against Campylobacter jejuni by broth microdilution method; assay type: functional
Vibrio alginolyticus [13] = assay: Antibacterial activity against Vibrio alginolyticus by broth microdilution method; assay type: functional
Aeromonas caviae [14] = assay: Antibacterial activity against Aeromonas caviae by broth microdilution method; assay type: functional
Salmonella enteritidis [15] = assay: Antibacterial activity against Salmonella enterica serovar Enteritidis by broth microdilution method; assay type: functional, Salmonella enterica subsp. enterica serovar Enteritidis
Vibrio cholerae [16] = assay: Antibacterial activity against Vibrio cholerae assessed as percent susceptible isolates by broth microdilution method; assay type: functional
[17] = tested on: Yersinia pseudotuberculosis; assay: Antibacterial activity against Yersinia pseudotuberculosis assessed as percent susceptible isolates by broth microdilution method; assay type: functional
Escherichia coli [18] = assay: Antibacterial activity against Escherichia coli assessed as percent resistant isolates by broth microdilution method; assay type: functional
Vibrio vulnificus [19] = assay: Antibacterial activity against Vibrio vulnificus by broth microdilution method; assay type: functional
Salmonella typhimurium [20] = assay: Antibacterial activity against Salmonella enterica serovar Typhimurium assessed as percent resistant isolates by broth microdilution method; assay type: functional, Salmonella enterica subsp. enterica serovar Typhimurium; settings: pooled result: one value given for 8 cell lines, strains, targets or settings
[21] = tested on: Yersinia pseudotuberculosis; assay: Antibacterial activity against Yersinia pseudotuberculosis by broth microdilution method; assay type: functional
Campylobacter coli = assay: Antibacterial activity against Campylobacter coli by broth microdilution method; assay type: functional
Yersinia enterocolitica [22] = assay: Antibacterial activity against Yersinia enterocolitica assessed as percent susceptible isolates by broth microdilution method; assay type: functional
Shigella flexneri = assay: Antibacterial activity against Shigella flexneri by broth microdilution method; assay type: functional
Salmonella paratyphi = assay: Antibacterial activity against Salmonella enterica serovar Paratyphi by broth microdilution method; assay type: functional, Salmonella enterica subsp. enterica serovar Paratyphi A
Vibrio sp. [23] = assay: Antibacterial activity against Vibrio sp. assessed as percent susceptible isolates by broth microdilution method; assay type: functional
Aeromonas veronii [24] = assay: Antibacterial activity against Aeromonas veronii assessed as percent resistant isolates by broth microdilution method; assay type: functional
Vibrio fluvialis [25] = assay: Antibacterial activity against Vibrio fluvialis by broth microdilution method; assay type: functional
Aeromonas hydrophila [26] = assay: Antibacterial activity against Aeromonas hydrophila by broth microdilution method; assay type: functional
[27] = Antibacterial activity against Salmonella enterica serovar Heidelberg by broth microdilution method; assay type: functional, Salmonella enterica subsp. enterica serovar Heidelberg
Vibrio alginolyticus [28] = assay: Antibacterial activity against Vibrio alginolyticus assessed as percent resistant isolates by broth microdilution method; assay type: functional
Plesiomonas shigelloides [29] = assay: Antibacterial activity against Plesiomonas shigelloides by broth microdilution method; assay type: functional
Yersinia enterocolitica [30] = assay: Antibacterial activity against Yersinia enterocolitica assessed as percent resistant isolates by broth microdilution method; assay type: functional
Plesiomonas shigelloides [31] = assay: Antibacterial activity against Plesiomonas shigelloides assessed as percent resistant isolates by broth microdilution method; assay type: functional
[32] = Antibacterial activity against Salmonella enterica serovar Newport by broth microdilution method; assay type: functional, Salmonella enterica subsp. enterica serovar Newport
Vibrio vulnificus [33] = assay: Antibacterial activity against Vibrio vulnificus assessed as percent susceptible isolates by broth microdilution method; assay type: functional
Aeromonas sobria [34] = assay: Antibacterial activity against Aeromonas sobria assessed as percent susceptible isolates by broth microdilution method; assay type: functional
Vibrio cholerae [35] = assay: Antibacterial activity against Vibrio cholerae by broth microdilution method; assay type: functional
Salmonella typhimurium [36] = assay: Antibacterial activity against Salmonella enterica serovar Typhimurium by broth microdilution method; assay type: functional, Salmonella enterica subsp. enterica serovar Typhimurium
Vibrio fluvialis [37] = assay: Antibacterial activity against Vibrio fluvialis assessed as percent susceptible isolates by broth microdilution method; assay type: functional
Vibrio sp. [38] = assay: Antibacterial activity against Vibrio sp. by broth microdilution method; assay type: functional
Vibrio fluvialis [39] = assay: Antibacterial activity against Vibrio fluvialis assessed as percent resistant isolates by broth microdilution method; assay type: functional
Aeromonas sobria [40] = assay: Antibacterial activity against Aeromonas sobria assessed as percent resistant isolates by broth microdilution method; assay type: functional
Shigella sonnei [41] = assay: Antibacterial activity against Shigella sonnei by broth microdilution method; assay type: functional
Aeromonas caviae [42] = assay: Antibacterial activity against Aeromonas caviae assessed as percent resistant isolates by broth microdilution method; assay type: functional
Vibrio cholerae [43] = assay: Antibacterial activity against Vibrio cholerae assessed as percent resistant isolates by broth microdilution method; assay type: functional
Shigella sonnei [44] = assay: Antibacterial activity against Shigella sonnei assessed as percent resistant isolates by broth microdilution method; assay type: functional; settings: pooled result: one value given for 4 cell lines, strains, targets or settings
Plesiomonas shigelloides [45] = assay: Antibacterial activity against Plesiomonas shigelloides assessed as percent susceptible isolates by broth microdilution method; assay type: functional
Aeromonas hydrophila [46] = assay: Antibacterial activity against Aeromonas hydrophila assessed as percent resistant isolates by broth microdilution method; assay type: functional
Vibrio parahaemolyticus [47] = assay: Antibacterial activity against Vibrio parahaemolyticus assessed as percent susceptible isolates by broth microdilution method; assay type: functional
Shigella dysenteriae = assay: Antibacterial activity against Shigella dysenteriae by broth microdilution method; assay type: functional
Escherichia coli [48] = assay: Antibacterial activity against Escherichia coli assessed as percent susceptible isolates by broth microdilution method; assay type: functional
Aeromonas caviae [49] = assay: Antibacterial activity against Aeromonas caviae assessed as percent susceptible isolates by broth microdilution method; assay type: functional
Aeromonas veronii [50] = assay: Antibacterial activity against Aeromonas veronii by broth microdilution method; assay type: functional
Vibrio sp. [51] = assay: Antibacterial activity against Vibrio sp. assessed as percent resistant isolates by broth microdilution method; assay type: functional
Yersinia enterocolitica [52] = assay: Antibacterial activity against Yersinia enterocolitica by broth microdilution method; assay type: functional

CC1(C)S[C@@H]2[C@H](NC(=O)[C@H](N)c3ccccc3)C(=O)N2[C@H]1C(=O)O [AMPICILLIN]
Activity (Vibrio parahaemolyticus [1]): 0%
Activity (Vibrio alginolyticus [2]): 90%
MIC50 (Shigella boydii [3]): 128 µg/mL (≈ 366 µM)
MIC90 (Shigella boydii [3]): > 256 µg/mL
Activity (Vibrio vulnificus [4]): 0%
Activity (Shigella boydii [5]): 40.6%
MIC50 (Aeromonas sobria [6]): > 256 µg/mL
MIC90 (Aeromonas sobria [6]): > 256 µg/mL
MIC90 (Salmonella typhi): > 256 µg/mL
Activity (Aeromonas veronii [7]): 1%
Activity (Salmonella enteritidis [8]): 77.2%
MIC90 [9]: > 256 µg/mL
Activity (Aeromonas hydrophila [10]): 1%
MIC50 (Escherichia coli [11]): 2 µg/mL (≈ 5.72 µM)
MIC90 (Escherichia coli [11]): > 256 µg/mL
MIC50 (Vibrio parahaemolyticus [12]): 2 µg/mL (≈ 5.72 µM)
MIC90 (Vibrio parahaemolyticus [12]): 8 µg/mL (≈ 22.9 µM)
MIC50 (Campylobacter jejuni): 2 µg/mL (≈ 5.72 µM)
MIC90 (Campylobacter jejuni): 32 µg/mL (≈ 91.6 µM)
MIC50 (Vibrio alginolyticus [13]): 2 µg/mL (≈ 5.72 µM)
MIC90 (Vibrio alginolyticus [13]): 8 µg/mL (≈ 22.9 µM)
MIC50 (Aeromonas caviae [14]): > 256 µg/mL
MIC90 (Aeromonas caviae [14]): > 256 µg/mL
MIC50 (Salmonella enteritidis [15]): 1 µg/mL (≈ 2.86 µM)
MIC90 (Salmonella enteritidis [15]): > 256 µg/mL
Activity (Vibrio cholerae [16]): 90%
Activity [17]: 6.5%
Activity (Escherichia coli [18]): 37%
MIC50 (Vibrio vulnificus [19]): 2 µg/mL (≈ 5.72 µM)
MIC90 (Vibrio vulnificus [19]): 8 µg/mL (≈ 22.9 µM)
Activity (Salmonella typhimurium [20]): 22.8%
MIC50 [21]: 32 µg/mL (≈ 91.6 µM)
MIC90 [21]: 32 µg/mL (≈ 91.6 µM)
MIC50 (Campylobacter coli): 2 µg/mL (≈ 5.72 µM)
MIC90 (Campylobacter coli): 32 µg/mL (≈ 91.6 µM)
Activity (Yersinia enterocolitica [22]): 6.5%
MIC50 (Shigella flexneri): 128 µg/mL (≈ 366 µM)
MIC90 (Shigella flexneri): > 256 µg/mL
MIC90 (Salmonella paratyphi): > 256 µg/mL
Activity (Vibrio sp. [23]): 90%
Activity (Aeromonas veronii [24]): 98%
MIC50 (Vibrio fluvialis [25]): 2 µg/mL (≈ 5.72 µM)
MIC90 (Vibrio fluvialis [25]): 8 µg/mL (≈ 22.9 µM)
MIC50 (Aeromonas hydrophila [26]): > 256 µg/mL
MIC90 (Aeromonas hydrophila [26]): > 256 µg/mL
MIC90 [27]: > 256 µg/mL
Activity (Vibrio alginolyticus [28]): 0%
MIC (Plesiomonas shigelloides [29]): 64 µg/mL (≈ 183 µM)
MIC50 (Plesiomonas shigelloides [29]): 64 µg/mL (≈ 183 µM)
Activity (Yersinia enterocolitica [30]): 91.3%
Activity (Plesiomonas shigelloides [31]): 100%
MIC90 [32]: > 256 µg/mL
Activity (Vibrio vulnificus [33]): 90%
Activity (Aeromonas sobria [34]): 1%
MIC50 (Vibrio cholerae [35]): 2 µg/mL (≈ 5.72 µM)
MIC90 (Vibrio cholerae [35]): 8 µg/mL (≈ 22.9 µM)
MIC50 (Salmonella typhimurium [36]): 1 µg/mL (≈ 2.86 µM)
MIC90 (Salmonella typhimurium [36]): > 256 µg/mL
Activity (Vibrio fluvialis [37]): 90%
MIC50 (Vibrio sp. [38]): 2 µg/mL (≈ 5.72 µM)
MIC90 (Vibrio sp. [38]): 8 µg/mL (≈ 22.9 µM)
Activity (Vibrio fluvialis [39]): 0%
Activity (Aeromonas sobria [40]): 98%
MIC50 (Shigella sonnei [41]): 128 µg/mL (≈ 366 µM)
MIC90 (Shigella sonnei [41]): > 256 µg/mL
Activity (Aeromonas caviae [42]): 98%
Activity (Vibrio cholerae [43]): 0%
Activity (Shigella sonnei [44]): 59.4%
Activity (Plesiomonas shigelloides [45]): 0%
Activity (Aeromonas hydrophila [46]): 98%
Activity (Vibrio parahaemolyticus [47]): 90%
MIC50 (Shigella dysenteriae): 128 µg/mL (≈ 366 µM)
MIC90 (Shigella dysenteriae): > 256 µg/mL
Activity (Escherichia coli [48]): 63%
Activity (Aeromonas caviae [49]): 1%
MIC50 (Aeromonas veronii [50]): > 256 µg/mL
MIC90 (Aeromonas veronii [50]): > 256 µg/mL
Activity (Vibrio sp. [51]): 0%
MIC50 (Yersinia enterocolitica [52]): 32 µg/mL (≈ 91.6 µM)
MIC90 (Yersinia enterocolitica [52]): 32 µg/mL (≈ 91.6 µM)
